We go through 6 molecules from US20210393574A1, “USE OF C[…] IN NEURO[…]” (HANYI BIO-TECHNOLOGY (BEIJING) CO., LTD., priority 2018, published 2021).

Structures can show the parent of a compound that is named as a salt.

One assay concerns guinea pigs. The experiment in a line: Impact on the itch-causing effect of histamine phosphate (itch-causing threshold). The format is in vivo. As to conditions: for alleviation of the itch-causing effect of histamine phosphate (in words): administration alone; for itch-causing threshold: oral, 3 consecutive days.
Assay [1] deals with patients with diagnosed neurodermatitis. The experiment in a line: Clinical study of cannabinoid compound for neurodermatitis. As to conditions: 2 weeks; for Cured (number of patients, efficacy index >90%) / effective (number of patients, efficacy index 20-60%) / excellently effective (number of patients, efficacy index 61-89%) / ineffective (number of patients, efficacy index <20%): orally once per day at bedtime, n=10; for clinical efficacy in neurodermatitis (in words): patients, orally once per day. The format is in vivo, human.

For the next assay, the target named is T1, 5-HT1A receptors (Mus musculus, UniProt Q64264).
T1 construct: host or cells: mice (in vivo)
T1 sequence (Q64264 1-421): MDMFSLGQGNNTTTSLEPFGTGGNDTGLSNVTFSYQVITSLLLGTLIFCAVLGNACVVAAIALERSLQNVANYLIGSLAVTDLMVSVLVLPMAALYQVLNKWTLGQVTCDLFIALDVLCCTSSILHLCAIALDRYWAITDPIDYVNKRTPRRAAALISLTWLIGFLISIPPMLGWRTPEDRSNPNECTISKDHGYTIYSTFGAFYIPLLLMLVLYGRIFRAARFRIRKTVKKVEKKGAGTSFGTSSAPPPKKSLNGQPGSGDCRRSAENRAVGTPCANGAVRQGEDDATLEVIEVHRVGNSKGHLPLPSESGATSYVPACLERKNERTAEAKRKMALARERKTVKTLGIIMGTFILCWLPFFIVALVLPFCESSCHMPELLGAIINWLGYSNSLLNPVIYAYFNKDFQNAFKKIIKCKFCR
The note with it: possibly through activation of 5-HT1A receptors; cited from earlier work.

The mark [2] stands for this setting: 100 mg of tetrahydrocannabinol (Embodiment 3).
Setting [3] is: 25 mg/d of doxepin hydrochloride.
Where [4] appears, read: 200 mg of cannabidiol (Embodiment 1).

Turning to `CCCCCc1cc(O)c2c(c1)OC(C)(C)[C@@H]1CCC(C)=C[C@@H]21` [tetrahydrocannabinol], in the assay with guinea pigs, the “alleviation of the itch-causing effect of histamine phosphate (in words)” value is “significantly alleviates”. Also, the itch-causing threshold in the assay with guinea pigs (40 mg/day) turned out to be 90.65 ± 32.08 µL. In addition, the itch-causing threshold in the assay with guinea pigs (80 mg/day) came to 92.10 ± 50.78 µL. In the assay with guinea pigs (100 mg/day), this molecule registered an itch-causing threshold of 94.98 ± 48.96 µL. Further, in assay [1] (setting [2]), the “Cured (number of patients, efficacy index >90%)” value is 1; the “effective (number of patients, efficacy index 20-60%)” value worked out at 6; the “excellently effective (number of patients, efficacy index 61-89%)” value came to 2; the “ineffective (number of patients, efficacy index <20%)” value was found to be 1. Besides, the “clinical efficacy in neurodermatitis (in words)” value in assay [1] is “have clinical efficacy in neurodermatitis”.
Turning to `CN(C)CCC=C1c2ccccc2COc2ccccc21` [doxepin hydrochloride, reference compound], in assay [1] (setting [3]), the “Cured (number of patients, efficacy index >90%)” value turned out to be 0; the “effective (number of patients, efficacy index 20-60%)” value is reported as 3; the “excellently effective (number of patients, efficacy index 61-89%)” value was 6; the “ineffective (number of patients, efficacy index <20%)” value is recorded as 1.
Turning to `C=C(C)[C@@H]1CCC(C)=C[C@H]1c1c(O)cc(CCCCC)cc1O` [cannabidiol], the “alleviation of the itch-causing effect of histamine phosphate (in words)” value with guinea pigs is reported as “significantly alleviates”. This molecule also returned an itch-causing threshold with guinea pigs (50 mg/day) of 90.24 ± 45.98 µL. In addition, in the assay with guinea pigs (200 mg/day), the itch-causing threshold worked out at 96.55 ± 42.34 µL. Besides, in the assay on guinea pigs (400 mg/day), the itch-causing threshold came to 117.67 ± 44.67 µL. In assay [1] (setting [4]), the “Cured (number of patients, efficacy index >90%)” value amounted to 1; the “effective (number of patients, efficacy index 20-60%)” value was 6; the “excellently effective (number of patients, efficacy index 61-89%)” value is reported as 3; the “ineffective (number of patients, efficacy index <20%)” value is listed as 0. Also, the “clinical efficacy in neurodermatitis (in words)” value in assay [1] is “have clinical efficacy in neurodermatitis”. The “antidepressant activity in mice (in words)” value at 5-HT1A receptors was “has antidepressant activity in mice”.
In turn, `CN(C)CCC(c1ccc(Cl)cc1)c1ccccn1` (stereo not drawn) [chlorphenamine maleate, reference compound] had an itch-causing threshold in the assay with guinea pigs (10 mg/day) of 127.03 ± 54.05 µL.
Regarding `C=C(C)[C@@H]1CCC(C)=C[C@H]1c1c(O)cc(CCC)cc1O` [cannabidivarin], the itch-causing threshold in the assay with guinea pigs (40 mg/day) came to 56.23 ± 45.87 µL; in the assay on guinea pigs (80 mg/day), 59.55 ± 39.84 µL; in the assay with guinea pigs (100 mg/day), 56.89 ± 34.25 µL.
On to `CCCc1cc(O)c2c(c1)OC(C)(C)[C@@H]1CCC(C)=C[C@@H]21` [tetrahydrocannabinovarin], for which the itch-causing threshold with guinea pigs (5 mg/day) was 50.45 ± 45.67 µL; in the assay on guinea pigs (10 mg/day), 56.43 ± 34.18 µL; in the assay on guinea pigs (20 mg/day), 55.23 ± 40.92 µL.
